In patent publication US8758767B2, “Antigens targeted by prevalent pathogennic T cells in type 1 diabetes and uses thereof” (Albert Einstein College of Medicine of Yeshiva University, priority 2003, dated 2014):
Each block holds one substance with its values, some of them ahead of it.

How the values were obtained:
[1] = target: IGRP206-214/H-2K^d on antigen-presenting cells (mouse) (UniProt P01902); test: cell-based or functional assay
[2] = tested on: 8.3 CTL; test: Epitope reconstitution 51Cr-release cytotoxicity assay, peptide-pulsed RMA-S/K^d target cells; format: cell-based, mouse; settings: peptide-pulsed RMA-S/K^d targets
Method: 8.3 CTL were generated by culturing splenocytes from 8.3-NOD mice with mitomycin C-treated NOD splenocytes pulsed with NRP-A7 peptide as described (DiLorenzo et al, 2002). CTL were used in 16 h ^51Cr-release cytotoxicity assays to test for recognition of peptide-pulsed RMA-S/K^d target cells (provided by M. Bevan, University of Washington, Seattle, Wash., USA) at an effector to target ratio of 40:1 as described (DiLorenzo et al., 2002). Synthetic peptides were used at concentrations as indicated in the figures, and 7×10^8, 6×10^8, and 2×10^9 NIT-1-cell-equivalents of peptide were used for assays of first-, second-, and third-dimension HPLC fractions, respectively.

[3] = tested on: 8.3-CD8+ T-cells; test: Proliferation and cytokine secretion of naive splenic 8.3-CD8+ T-cells with peptide-pulsed NOD splenocytes; format: cell-based, mouse; settings: for agonistic activity on 8.3-CD8+ T-cells: FIG. 5, peptide 0.01-1 μM
Method: Naïve or NRP-A7-differentiated (see below) splenic CD8+ T-cells from 8.3-NOD mice (2×10^4/well) were incubated, in duplicate, with peptide-pulsed (0.01, 0.1 and 1 μM), γ-irradiated (3,000 rad) NOD splenocytes (10^5/well) for 3 days at 37° C. in 5% CO2. Cultures were pulsed with 1 μCi of (^3H)-thymidine during the last 18 hours of culture and harvested.
(§1) Naïve splenic CD8+ T-cells from 8.3-NOD mice (2×10^4/well) were incubated with peptide-pulsed (0.001, 0.01, 0.1, 1 and/or 10 μM) γ-irradiated NOD splenocytes (10^5/well) in 96-well plates for 48 hours at 37° C. Short-term islet-derived T-cell lines from peptide-treated or unmanipulated NOD mice (adjusted at 2×10^4 CD8+ T-cells/well) were tested the same way, but using 10 μM of peptide. The supernatants (100 μl/well) were assayed in duplicate for IL-2, IL-4, and/or IFN-γ content by ELISA using commercially available kits (Genzyme Diagnostics, Cambridge, Mass.).

[4] = tested on: female NOD mice; test: Repeated peptide treatment of female NOD mice, diabetes development and islet-associated CD8+ T-cells; format: in vivo, mouse; settings: for avidity of NRP-V7 tetramer binding by islet-associated CD8+ cells of treated mice: NRP-I4 100 μg/injection, NRP-A7 50 μg/injection, vs TUM-treated mice; for protection from diabetes by chronic treatment (discussion summary): intermediate doses NRP-A7, high doses NRP-I4, low or high doses NRP-V7, high doses IGRP206-214; for absolute number of NRP-V7-reactive T-cells in the islets: NRP-A7 50 μg/injection vs. TUM-treated mice; for T-cell responses against IGRP epitopes of islet-derived CD8+ T-cells of treated mice: for IGRP206-214 treatment: other IGRP epitopes
Method: Cohorts of 3-to-4 week-old female NOD mice were injected with 1-100 μg of peptide in PBS intraperitoneally. This was repeated every 2 weeks until the 7-8th week, and every 3 weeks thereafter. Mice were monitored for development of hyperglycemia until at least the 28th week of age. The 8.3-CD8+ T-cell tolerogenic activity of APLs was determined by treating 8-15 wk-old 8.3-NOD mice with one i.p. injection of 100 μg of peptide. […] Mice were sacrificed a week after treatment, and their spleens analyzed for presence of 8.3-CD8+ T-cells by flow cytometry.
We next investigated whether the anti-diabetogenic activity of the above APLs was a function of “avidity”, as defined not only by the affinity of individual peptide/MHC complexes for specific TCRs, but also by the absolute number of peptide/MHC complexes that are available for recognition (i.e. dose of peptide). This was done by treating cohorts of female NOD mice with repeated injections of TUM (negative control), NRP-I4, NRP-A7 and NRP-V7 (in PBS) over a wide dose range, and by following the mice for development of diabetes (FIG. 7A, top). Starting at 3-4 weeks of age, mice received one injection of peptide i.p. every 2 (first three doses) or 3 weeks after initiation of treatment. Mice were sacrificed at diabetes onset or at the end of the follow-up period (28-32 weeks), to investigate the effects of treatment on the size and tetramer-binding avidity of the islet-associated IGRP206-214-reactive CD8+ T-cell subpopulation (FIG. 7A, bottom).

[5] = tested on: AI12.B1.3 TCR; test: TCR transfectant peptide recognition, IL-2 release (58 α−β− cells, RMA-S/K^d presenters); format: cell-based, mouse; settings: FIG. 2
Source text: (§2) T cell receptors from the previously isolated NOD-derived β cell-autoreactive class I MHC-restricted T cell clones AI4, AI12.B1.1, AI12.B1.2, AI12.B1.3, AI15.A10, AI15.F5 (DiLorenzo et al., 1998), and 8.3 (Verdaguer et al., 1997) were expressed in the TCR^− T cell hybridoma 58α^−β^− (engineered to express the TCR ζ chain and CD8αβ and provided by H.-C. Chang, Dana Farber, Boston, Mass., USA) as described (Serreze et al., 2001). TCR expression was verified by flow cytometric analysis of growing clones using an antibody to CD3ε (145-2C11). RMA-S/K^d cells incubated overnight at 28° C. were used to present exogenously added synthetic peptides at concentrations as indicated in the figures. Peptide recognition by the TCR transfectants was measured by IL-2 production as previously described (Serreze et al., 2001).

[6] = tested on: AI15.F5 TCR; test: as above; format: cell-based, mouse; settings: FIG. 2
Source text: as §2

[7] = tested on: NOD female mice; test: Protection of NOD mice from type 1 diabetes (Example 2); format: in vivo, mouse; settings: for mice that developed diabetes: 100 micrograms peptide intraperitoneally from 3.5 weeks of age, read at ~25 weeks-old
Method: Ten NOD female mice were treated with 100 micrograms of IGRP206-214 peptide (in phosphate-buffered saline) intraperitoneally, starting at 3.5 weeks of age. Forty mice were used as controls. Each control mouse was treated with the TUM peptide ([…] NO:15). The mice received one injection of peptide every two weeks for the first three injections, and then one injection every three weeks thereafter. At 25 weeks-old, two (20%) of the IGRP206-214 mice developed diabetes, vs. 26 control mice ( 65%). […] There were no significant differences in interferon-γ production vs. cells stimulated with the negative control peptide TUM. In one of these two mice, the islets contained T-cells that responded to two IGRP peptides other than IGRP206-214.

[8] = target: T1, H-2K^d (Mus musculus, UniProt P01902); test: H-2K^d stabilization assay on RMA-S/K^d cells (Example 1); format: binding; settings: FIG. 3, mean fluorescence intensity of H-2K^d
T1 construct: expressed in transfected cells; host or cells: RMA-S/K^d cells
T1 sequence (P01902 22-368): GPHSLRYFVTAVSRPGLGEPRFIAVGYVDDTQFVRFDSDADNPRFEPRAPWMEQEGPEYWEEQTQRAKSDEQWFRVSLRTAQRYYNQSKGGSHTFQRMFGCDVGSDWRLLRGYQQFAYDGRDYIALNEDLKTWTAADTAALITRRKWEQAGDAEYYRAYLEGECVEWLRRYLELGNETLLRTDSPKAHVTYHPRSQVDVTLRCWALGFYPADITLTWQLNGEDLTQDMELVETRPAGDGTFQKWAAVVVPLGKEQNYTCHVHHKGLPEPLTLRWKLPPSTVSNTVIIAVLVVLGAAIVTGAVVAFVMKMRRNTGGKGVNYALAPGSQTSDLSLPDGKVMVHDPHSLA
T1 sequence (P01887 21-119 partner): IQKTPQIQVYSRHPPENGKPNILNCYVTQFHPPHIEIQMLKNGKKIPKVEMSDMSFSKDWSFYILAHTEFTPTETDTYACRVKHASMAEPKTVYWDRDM
Method: RMA-S/K^d cells, cultured overnight at 28° C., were pulsed with peptides in complete DMEM for 1 h at 28° C., incubated at 37° C. for 3 h, washed, stained with anti-H-2K^d monoclonal antibody SF1-1.1, counter-stained with FITC-conjugated polyclonal goat anti-mouse antibody, and analyzed by flow cytometry. Data were calculated by subtracting mean fluorescence intensity of H-2K^d on non-peptide-pulsed cells from that on peptide-pulsed cells.

[9] = tested on: CD8+ cells derived from pancreatic islets of wild-type NOD mice; test: Tetramer staining and avidity of NOD islet-derived CD8+ T-cells (Example 3); format: cell-based, mouse; settings: FIG. 9B, at least some animals
Method: Tetramers were prepared and used as described in (Amrani et al., 2000). Hand-picked pancreatic islets from individual mice were cultured in complete media supplemented with 0.5 U/ml of Takeda rhIL-2 for 7-9 days. T-cells (10^6 per 20 μl) were then stained for 45 minutes on ice in 20 μl of wash media (0.2% sodium bicarbonate, 0.1% sodium azide and 2% FBS in RPMI-1640) containing anti-CD8-FITC (clone YTS169.4; 0.5 μg) and tetramer (85.5 nM). After washing, the cells were resuspended in wash media and analyzed with a flow cytometer (Becton Dickinson). For the analysis of tetramer staining at equilibrium, T-cells were stained for 2 hours at room temperature with 20 μl of wash media (0.2% sodium bicarbonate, 0.1% sodium azide and 2% FBS in RPMI-1640) containing anti-CD8α-FITC (clone YTS169.4; 0.5 μg) and different concentrations of tetramers (8.55, 17.1, 42.75 and 85.5 nM). After washing, cells were resuspended in 100 μl of wash media, fixed in 0.4% paraformaldehide and analyzed with a flow cytometer. The apparent Kd values were determined by plotting the negative reciprocal of the slope of the line fit to Scatchard plots of fluorescence units (median of CD8+ population tetramer staining)/nM versus fluorescence units.

[10] = tested on: CD8+ cells propagated from islets of NOD mice; test: IFN-γ secretion by islet-derived CD8+ T-cells in response to IGRP peptides; format: cell-based, mouse; settings: peptide 10 μM, pre-diabetic or acutely diabetic NOD mice
Source text: Islet-derived CD8+ T-cells from peptide-treated or unmanipulated NOD mice were generated by culturing pancreatic islets in complete media (CM: RPMI 1640 media containing 10% fetal bovine serum), containing 0.5 U/ml Takeda rhIL-2 (10-50 islets/well in 24-well plates). The in vivo-activated, IL-2R+ lymphocytes migrating from islets into the culture media were used in functional assays within 6-9 days of islet isolation (Amrani et al., 2000; Anderson et al., 1999).
as §1

[11] = IFN-γ secretion, Table II, FIG. 10A

half-maximal activity, 51Cr-release assay with 8.3 CTL on peptide-pulsed RMA-S/K^d cells [1]: 50 µM
Substance: 8.3 T cell receptor (TCR)

Substance: KYCLITIFL [G6Pase, reference compound]
recognition by 8.3 CTL [2]: not recognized by 8.3 CTL

Substance: KYNIANWFL [NRP-I4]
triggering IFN-γ secretion by naive 8.3-CD8+ T-cells ([3]; FIG. 5): quite efficient
agonistic activity on 8.3-CD8+ T-cells [3]: partial agonist
inducing other responses of naive 8.3-CD8+ T-cells ([3]; FIG. 5, proliferation, IL-2): significantly less efficient than NRP-A7
anti-diabetogenic activity ([4]; 100 μg/injection): highly anti-diabetogenic
anti-diabetogenic activity ([4]; <20 μg/injection): not protective at all
avidity of NRP-V7 tetramer binding by islet-associated CD8+ cells of treated mice [4]: significantly lower avidity
protection from diabetes by chronic treatment (discussion summary) [4]: near complete protection from diabetes

Substance: KYNKANAFL [NRP-A7]
recognition by AI12.B1.3 (IL-2 release) [5]: recognized
recognition by AI15.F5 (IL-2 release) [6]: did not recognize
agonistic activity on 8.3-CD8+ T-cells [3]: agonist
anti-diabetogenic activity ([4]; 50 μg/injection): protected mice from diabetes
anti-diabetogenic activity ([4]; 100 μg/injection): ineffective
percentages and absolute numbers of NRP-V7-reactive CD8+ cells in the islets ([4]; 100 μg/injection): significantly reduced numbers
absolute number of NRP-V7-reactive T-cells in the islets [4]: 0.6×10^5±0.3
avidity of NRP-V7 tetramer binding by islet-associated CD8+ cells of treated mice [4]: accumulation of low avidity IGRP206-214-reactive CD8+ T-cells within islets
protection from diabetes by chronic treatment (discussion summary) [4]: near complete protection from diabetes

Substance: KYQAVTTTL [TUM, reference compound]
mice that developed diabetes [7]: ~65%
T-cell responses against IGRP epitopes of islet-derived CD8+ T-cells of treated mice [4, 11]: did not significantly increase
absolute number of NRP-V7-reactive T-cells in the islets [4]: 1×10^5±0.3

Substance: LYLVCGERG [INS B15-23]
binding to H-2K^d [8]: barely detectable even at the highest peptide concentration tested

binding to H-2K^d [8]: improved binding to H-2K^d
Substance: LYLVCGERI [INS-I9]

Substance: SFCKSASIP [peptide 72, text numbering of the IGRP library]
presence of peptide-reactive CD8+ T-cells in islets by tetramers [9]: confirmed the presence
mice with islet CD8+ T-cells responding to the peptide (IFN-γ secretion) [10]: a significant number of mice also mounted responses

Substance: TYYGFLNFM [peptide 39, text numbering of the IGRP library]
presence of peptide-reactive CD8+ T-cells in islets by tetramers [9]: confirmed the presence
mice with islet CD8+ T-cells responding to the peptide (IFN-γ secretion) [10]: a significant number of mice also mounted responses

binding to H-2K^d [8]: good MEC binding
Substance: VYLKTNVFL [IGRP206-214]
recognition by 8.3 CTL [2]: is the natural β cell peptide recognized by 8.3
recognition by AI12.B1.3 (IL-2 release) [5]: recognized
recognition by AI15.F5 (IL-2 release) [6]: responded
mice that developed diabetes [7]: 20%
IGRP206-214-reactive T-cells in islets of treated mice that developed diabetes ([7]; NRP-V7/K^d tetramer staining): did not have IGRP206-214-reactive T-cells in islets
age at onset of diabetes ([4]; 75-100 μg/injection): delayed
incidence of diabetes ([4]; 75-100 μg/injection): did not significantly reduce
intra-islet IGRP206-214-reactive CD8+ T-cell subpopulation ([4]; 75-100 μg/injection, flow cytometry and functional assays): near complete deletion
anti-IGRP206-214 response of islet-derived CD8+ T-cells of treated mice [4, 11]: reduced both the frequency and magnitude
T-cell responses against IGRP epitopes of islet-derived CD8+ T-cells of treated mice [4, 11]: increased the frequency and magnitude
protection from diabetes by chronic treatment (discussion summary) [4]: only afforded marginal protection from disease
mice with islet CD8+ T-cells responding to the peptide (IFN-γ secretion) [10]: most mice

Substance: YLKTNVFLF [IGRP207-215]
cross-reactivity with IGRP206-214, ability to elicit 8.3-CD8+ T-cell responses ([3]; data not shown): cross-reactive with IGRP206-214
mice with islet CD8+ T-cells responding to the peptide (IFN-γ secretion) [10]: most mice
